Experiment [1] has as its system RBL-2H3/ETFR cells. Nature of the experiment: RBL-2H3/ETFR cell proliferation, xCELLigence. The experiment is classed as cell-based, rat. The conditions noted are these: 10 μM peptide, up to 90 hours, medium replaced every 24 hours, quadruplicate.
In experiment [2] the target is T1, FPR1 (Homo sapiens, UniProt P21462).
T1 sequence (P21462 1-350): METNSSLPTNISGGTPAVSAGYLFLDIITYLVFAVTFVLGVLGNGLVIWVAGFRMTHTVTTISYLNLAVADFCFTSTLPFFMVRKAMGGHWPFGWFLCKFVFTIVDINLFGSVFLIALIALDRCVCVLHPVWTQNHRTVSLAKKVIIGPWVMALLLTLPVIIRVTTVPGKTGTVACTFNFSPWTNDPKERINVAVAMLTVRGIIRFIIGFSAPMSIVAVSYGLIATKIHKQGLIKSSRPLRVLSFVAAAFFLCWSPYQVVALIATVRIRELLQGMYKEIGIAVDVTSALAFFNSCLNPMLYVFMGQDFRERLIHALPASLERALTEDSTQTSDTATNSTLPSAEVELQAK
Nature of the experiment: Agonist-induced FPR1 internalization at 37°C, fluorescence microscopy, THP-1 cells. The experiment is classed as cell-based. Further details: host or cells: THP-1 human monocytic leukemia cells. Conditions: excess (100 nM) unlabelled peptide 30 min at 37°C, then 10 nM FITC-fMLF 30 min at 37°C. As for the experimental part: Once documented that both SRSRY and [SRSRY] peptides compete with fMLF for binding to FPR1, we investigated the effect of [SRSRY] on the motility of monocytes. Preliminarily, we assessed whether [SRSRY] is a ligand of FPR1 on monocyte cell surface. […] (Fig 3A). When binding experiments were performed at 37°C, FPR1 appeared mainly localized within the cytoplasm, adjacent but outside the nucleus of THP-1 cells.
Fig 3 The peptide [SRSRY] binds to FPR1 on THP-1 cell surface. A. THP-1 cells (1.5 x10^6 cells/sample) were pre-incubated with diluents (None), 100 nM fMLF, 100 nM SRSRY or 100 nM [SRSRY] peptides for 60 minutes at 4°C, then exposed to 10 nM N-formyl-Nle-Leu-Phe-Nle-Tyr-Lys-fluorescein (FITC-fMLF) for additional 60 minutes at 4°C. Fluorimetric measurement of cell-associated fluorescence was assed using 485 nm excitation and 535 nm emission filters. Data are expressed as a percentage of the fluorescence associated to THP-1 cells exposed to FITC-fMLF alone (None = 100%) and represent a mean ± SD from triplicates. *Statistical significance (t-test) against None with p<0.001. B. THP-1 cells incubated with diluents (None), 100 nM fMLF, 100 nM SRSRY or 100 nM [SRSRY] peptides for 30 minutes at 37°C and exposed to 10 nM FITC-fMLF for additional 30 minutes at 37°C. Scale bar: 5 μm. Original magnifications: 630x. […]

Peptide text beside a SMILES is read from it.

On to `N=C(N)NCCC[C@@H]1NC(=O)[C@H](CO)NC(=O)[C@H](Cc2ccc(O)cc2)NC(=O)[C@H](CCCNC(=N)N)NC(=O)[C@H](CO)NC1=O` [[SRSRY], [Ser-Arg-Ser-Arg-Tyr]] (cyclo(RSRYS)), for which the RBL-2H3/ETFR cell growth entry in experiment [1] was “did not modify cell growth up to 90 hours”. The “internalization of fluorescent agonist in THP-1 cells” value in experiment [2] is recorded as “dramatically reduced”.

Values taken from paper PMC4418665, “Cyclization of the Urokinase Receptor-Derived Ser-Arg-Ser-Arg-Tyr Peptide Generates a Potent Inhibitor of Trans-Endothelial Migration of Monocytes” (PLoS ONE, 2015).
